{
  "source": "ChEMBL document CHEMBL1201862",
  "about": "“PubChem BioAssay data set” (2004)",
  "key": {"[1]": {"biological_target": "T1, RNA-binding protein pos-1 (Caenorhabditis elegans, UniProt G5EF15)", "T1 sequence (G5EF15 whole entry)": "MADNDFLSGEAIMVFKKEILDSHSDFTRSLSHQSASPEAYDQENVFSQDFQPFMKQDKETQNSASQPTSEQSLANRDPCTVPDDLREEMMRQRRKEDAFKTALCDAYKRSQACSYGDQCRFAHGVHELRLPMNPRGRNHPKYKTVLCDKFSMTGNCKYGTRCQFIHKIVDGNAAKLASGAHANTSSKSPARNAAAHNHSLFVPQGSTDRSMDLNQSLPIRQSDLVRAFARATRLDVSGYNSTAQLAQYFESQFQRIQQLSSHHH", "assay": "inhibitors of POS-1/mex-3 RNA binding, dose response, biochemical, fluorescence polarization (AID 1964);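 further: purified POS-1 fused to maltose binding protein made in E. coli; potency of compounds blocking POS-1 binding to fluorescent RNA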"}, "[2]": {"biological_target": "T2, Zinc finger protein mex-5 (Caenorhabditis elegans, UniProt Q9XUB2)", "T2 sequence (Q9XUB2 whole entry)": "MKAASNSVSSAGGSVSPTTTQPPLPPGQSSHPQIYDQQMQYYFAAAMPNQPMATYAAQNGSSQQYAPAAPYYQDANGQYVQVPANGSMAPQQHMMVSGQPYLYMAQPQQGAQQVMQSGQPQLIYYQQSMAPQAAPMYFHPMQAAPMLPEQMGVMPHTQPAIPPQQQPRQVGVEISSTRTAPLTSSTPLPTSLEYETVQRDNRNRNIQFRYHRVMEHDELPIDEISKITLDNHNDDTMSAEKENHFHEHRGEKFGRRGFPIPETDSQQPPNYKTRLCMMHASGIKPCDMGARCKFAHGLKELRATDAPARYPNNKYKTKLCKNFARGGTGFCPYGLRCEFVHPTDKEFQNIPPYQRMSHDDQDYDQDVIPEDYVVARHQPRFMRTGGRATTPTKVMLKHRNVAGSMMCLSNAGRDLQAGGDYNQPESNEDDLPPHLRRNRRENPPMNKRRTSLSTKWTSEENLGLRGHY", "assay": "MEX-5/TCR-2 RNA interaction inhibitors, dose response, biochemical, C. elegans, fluorescence polarization (AID 1960)"}, "Genome polyprotein": {"biological_target": "Genome polyprotein (dengue virus type 2, UniProt P29990)", "sequence (P29990 2492-3391 limits assumed)": "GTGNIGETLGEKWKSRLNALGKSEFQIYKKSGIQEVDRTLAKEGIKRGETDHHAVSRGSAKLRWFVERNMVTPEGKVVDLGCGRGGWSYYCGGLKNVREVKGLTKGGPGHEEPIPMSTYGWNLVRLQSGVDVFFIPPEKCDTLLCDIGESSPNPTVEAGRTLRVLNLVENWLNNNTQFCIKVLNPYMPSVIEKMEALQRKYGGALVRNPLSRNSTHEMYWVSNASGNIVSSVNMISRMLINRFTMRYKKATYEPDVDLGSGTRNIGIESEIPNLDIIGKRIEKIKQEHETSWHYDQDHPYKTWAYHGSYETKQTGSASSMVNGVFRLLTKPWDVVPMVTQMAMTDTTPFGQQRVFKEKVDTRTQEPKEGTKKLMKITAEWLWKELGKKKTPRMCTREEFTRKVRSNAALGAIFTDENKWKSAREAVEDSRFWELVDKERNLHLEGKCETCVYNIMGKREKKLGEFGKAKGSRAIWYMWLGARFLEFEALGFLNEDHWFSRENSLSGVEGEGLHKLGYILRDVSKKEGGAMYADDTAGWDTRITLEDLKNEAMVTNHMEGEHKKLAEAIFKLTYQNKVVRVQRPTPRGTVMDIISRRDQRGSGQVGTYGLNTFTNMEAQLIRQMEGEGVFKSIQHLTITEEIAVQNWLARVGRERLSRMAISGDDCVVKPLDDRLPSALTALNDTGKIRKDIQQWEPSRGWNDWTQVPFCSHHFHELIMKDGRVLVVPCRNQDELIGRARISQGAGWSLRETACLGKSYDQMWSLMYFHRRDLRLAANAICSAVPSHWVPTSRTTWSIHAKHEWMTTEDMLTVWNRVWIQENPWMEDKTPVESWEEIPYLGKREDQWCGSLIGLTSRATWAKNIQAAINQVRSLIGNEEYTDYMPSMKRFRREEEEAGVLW", "assay": "Dengue-2 NS5 methyltransferase inhibitors, primary screen, biochemical, confirmation dose response (AID 588689)", "type": "functional"}, "cells [3]": {"assay": "cells", "type": "functional, cell-based"}, "cells [4]": {"assay": "cells", "type": "functional, cell-based", "remark": "listed apart in the source"}, "H9c2": {"test_system": "H9c2", "assay": "cells", "type": "functional, cell-based", "details": "Rattus norvegicus, H9c2, Myocardium"}, "[5]": {"assay": "NIH-3T3 fibroblast cytotoxicity, dose response, cytotoxicity control, cell-based, fluorescence, Alamar Blue, secondary assay (AID 2327);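 further: NIH-3T3 mouse fibroblasts cultured with fluconazole at 8 µg/mL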", "type": "functional"}, "[6]": {"assay": "C. albicans growth with fluconazole, confirmation, fluorescence, retest (AID 2467)", "type": "functional, cell-based"}, "Nonstructural protein 1": {"biological_target": "Nonstructural protein 1 (Influenza A virus, UniProt Q194T2)", "sequence (Q194T2 whole entry)": "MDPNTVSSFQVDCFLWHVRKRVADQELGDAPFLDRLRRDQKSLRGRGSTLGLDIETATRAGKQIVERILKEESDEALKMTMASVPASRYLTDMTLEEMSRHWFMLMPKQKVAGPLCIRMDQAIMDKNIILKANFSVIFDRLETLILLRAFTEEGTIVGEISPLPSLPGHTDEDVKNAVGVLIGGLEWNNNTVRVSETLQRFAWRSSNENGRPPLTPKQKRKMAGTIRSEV", "type": "functional, Influenza A virus (A/California/07/2009(H1N1))"}, "[7]": {"biological_target": "Heat shock protein HSP 90-alpha (Homo sapiens, UniProt P07900)", "type": "functional, organism-based"}, "[8]": {"biological_target": "T3, Ubiquitin-conjugating enzyme E2 N (Homo sapiens, UniProt P61088)", "T3 sequence (P61088 whole entry)": "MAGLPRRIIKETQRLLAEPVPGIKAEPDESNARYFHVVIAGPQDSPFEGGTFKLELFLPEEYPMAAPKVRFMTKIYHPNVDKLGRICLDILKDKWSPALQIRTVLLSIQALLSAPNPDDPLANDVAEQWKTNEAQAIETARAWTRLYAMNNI", "type": "functional"}, "[9]": {"assay": "inhibitors of intracellular T. cruzi replication, confirmation, NIH3T3 host cells, beta-gal luminescence (AID 2044);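 further: luminescent beta-galactosidase reporter signal from transgenic T. cruzi replicating inside host cells; inhibitors lower the luminescence signal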", "type": "functional, cell-based"}, "[10]": {"assay": "cytotoxicity toward NIH3T3 fibroblasts, dose response, counter-screen, cell-based, ATP luminescence, mouse fibroblasts (AID 2010);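 further: cells exposed to compound for about 90 hours before reading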", "type": "functional"}, "INS1": {"test_system": "INS1", "assay": "beta cell apoptosis inhibitors, cytokine rescue, dose response, luminescence, retest (AID 449756);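 further: cell death triggered by IL-1 beta plus TNF-alpha plus IFN-gamma mixture; protective hits raise ATP signal compared with cytokine alone wells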", "type": "functional, cell-based", "details": "Rattus norvegicus"}, "[11]": {"assay": "ZM109 Env clade C HIV-1 fusion inhibitors, dose response, HeLa effector, CEM target cells, luciferase, cherry-pick (AID 652058)", "type": "functional, cell-based"}, "[12]": {"biological_target": "T4, Heat shock factor protein 1 (Mus musculus, UniProt P38532)", "T4 sequence (P38532 whole entry)": "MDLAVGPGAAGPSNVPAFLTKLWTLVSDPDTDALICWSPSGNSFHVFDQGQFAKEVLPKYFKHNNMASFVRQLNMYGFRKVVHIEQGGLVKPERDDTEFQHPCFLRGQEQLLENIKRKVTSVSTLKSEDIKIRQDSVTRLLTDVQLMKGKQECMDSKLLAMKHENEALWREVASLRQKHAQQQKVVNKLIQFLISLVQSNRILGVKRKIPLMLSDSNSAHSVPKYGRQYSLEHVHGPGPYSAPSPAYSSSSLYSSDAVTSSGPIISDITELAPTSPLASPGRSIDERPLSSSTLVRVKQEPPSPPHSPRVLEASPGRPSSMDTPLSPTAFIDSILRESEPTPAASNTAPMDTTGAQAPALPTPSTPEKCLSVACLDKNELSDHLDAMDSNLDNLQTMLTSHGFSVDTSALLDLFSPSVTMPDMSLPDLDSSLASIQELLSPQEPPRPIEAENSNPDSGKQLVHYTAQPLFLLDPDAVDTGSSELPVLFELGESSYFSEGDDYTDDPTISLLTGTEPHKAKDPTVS", "assay": "inhibition of MG132-induced HSE-luciferase signal, confirmation, cell-based, NIH3T3, luminescence, dose retest (AID 2382);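 further: NIH3T3 fibroblasts with HSF1-driven luciferase reporter stressed by proteasome inhibitor MG132; luminescence from HSF1-driven luciferase expression after 8 hours of MG132 stress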", "type": "functional"}, "[13]": {"biological_target": "DNA dC->dU-editing enzyme APOBEC-3G (Homo sapiens, UniProt Q9HC16)", "sequence (Q9HC16 whole entry)": "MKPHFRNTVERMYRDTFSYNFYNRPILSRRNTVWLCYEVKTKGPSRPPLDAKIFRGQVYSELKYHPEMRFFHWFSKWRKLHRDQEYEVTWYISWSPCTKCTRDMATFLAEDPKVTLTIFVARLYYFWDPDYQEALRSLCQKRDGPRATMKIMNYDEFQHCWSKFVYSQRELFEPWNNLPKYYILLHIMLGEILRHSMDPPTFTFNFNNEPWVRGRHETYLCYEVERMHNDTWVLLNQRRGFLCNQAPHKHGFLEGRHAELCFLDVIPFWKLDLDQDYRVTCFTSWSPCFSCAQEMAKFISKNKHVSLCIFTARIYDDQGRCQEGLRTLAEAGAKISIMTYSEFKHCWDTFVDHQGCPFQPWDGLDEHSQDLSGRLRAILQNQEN", "assay": "Dose Response confirmation of small molecule APOBEC3G DNA Deaminase Inhibitors via a fluorescence-based single-stranded DNA deaminase assay. [Related pubchem assays (depositor defined):AID493012, AID493028]", "type": "functional"}, "[14]": {"assay": "P. falciparum Dd2 growth inhibitors, dose response, SYBR Green, cherry-picked samples (AID 1159567)", "type": "functional, cell-based"}},
  "note": "Active and inactive are the calls of the source.",
  "data": [
    {"smiles": "CC1(OC(=O)c2ccco2)C(=O)C=C2C=C(C3CC3)OC=C2C1=O", "note": "(stereo unspecified)", "values": [
      {"measurement": "EC50", "setting": "[1]", "value": "20.2 µM (active)"},
      {"measurement": "EC50", "setting": "[2]", "value": "18.3 µM (active)"},
      {"measurement": "IC50", "setting": "Genome polyprotein", "value": "> 100 µM (active)"}
    ]},
    {"smiles": "Cc1cc(NC(=O)CSc2nc3c(c(=O)n2-c2ccc(Cl)cc2)SCC3)no1", "values": [
      {"measurement": "EC50", "setting": "cells [3]", "value": "> 350 µM (not active)"},
      {"measurement": "EC50", "setting": "cells [4]", "value": "> 350 µM (not active)"}
    ]},
    {"smiles": "COc1cc(-c2nnc(COC(=O)c3cc(C)nc4ccc(C)cc34)o2)cc(OC)c1OC", "values": [
      {"measurement": "IC50", "setting": "H9c2", "value": "12.3 µM (active)"}
    ]},
    {"smiles": "CCCCC(=O)Nc1ccc(NC(=O)CC)cc1OC", "values": [
      {"measurement": "EC50", "setting": "cells [3]", "value": "> 350 µM (not active)"},
      {"measurement": "EC50", "setting": "cells [4]", "value": "> 350 µM (not active)"}
    ]},
    {"smiles": "Cc1ccc(N2CCN(C3=NC(=O)/C(=C\\c4c[nH]nc4-c4ccccc4)S3)CC2)cc1", "values": [
      {"measurement": "EC50", "setting": "[5]", "value": "> 150 µM (inactive)"},
      {"measurement": "EC50", "setting": "[6]", "value": "8.34 µM (active)"}
    ]},
    {"smiles": "CC(=NNC(=S)N1CC2CCC(CC2)C1)c1cnccn1", "values": [
      {"measurement": "IC50", "setting": "Nonstructural protein 1", "value": "3.16 µM (active)"},
      {"measurement": "AC50", "setting": "[7]", "value": "4.43 µM (active)"}
    ]},
    {"smiles": "CCC[C@@H](CN1CCC[C@H]1CN1C(N)=NC[C@@H]1Cc1ccccc1)N1C[C@@H]([C@H](C)CC)N(CCc2ccc(Cl)c(Cl)c2)C1=N", "values": [
      {"measurement": "IC50", "setting": "[8]", "value": "> 20 µM (inactive)"}
    ]},
    {"smiles": "C#CCOCCOCCOCCNc1nc(N2CCN(C(=O)[C@H](CO)n3cc([C@@H](N)C(C)C)nn3)CC2)nc(N2CCN(C(=O)[C@H](CCC(=O)O)n3cc([C@@H](N)CCCCN)nn3)CC2)n1", "values": [
      {"measurement": "IC50", "setting": "[8]", "value": "> 20 µM (inactive)"}
    ]},
    {"smiles": "CC(=O)N1CCN(C(=O)CCc2nc(O)c3ccccc3n2)CC1", "values": [
      {"measurement": "IC50", "setting": "H9c2", "value": "> 79 µM (inactive)"}
    ]},
    {"smiles": "O=C(O)c1cccc2c1Cc1cc(Cl)ccc1-2", "values": [
      {"measurement": "AC50", "setting": "[7]", "value": "0.723 µM (active)"}
    ]},
    {"smiles": "C/C(=N\\NC(=O)c1cc(-c2cccnc2)nc2ccccc12)c1ccccc1O", "values": [
      {"measurement": "EC50", "setting": "cells [3]", "value": "16.8 µM (active)"},
      {"measurement": "EC50", "setting": "[9]", "value": "0.834 µM (active)"},
      {"measurement": "EC50", "setting": "cells [4]", "value": "> 350 µM (not active)"},
      {"measurement": "EC50", "setting": "[10]", "value": "2.18 µM (active)"},
      {"measurement": "AC50", "setting": "INS1", "value": "0.971 µM (active)"}
    ]},
    {"smiles": "O=C(C[C@@H]1C=C[C@@H](NC(=O)c2ccccc2)[C@H](CO)O1)NCc1ccc(Oc2ccccc2)cc1", "values": [
      {"measurement": "AC50", "setting": "[11]", "value": "38.2 µM (active)"}
    ]},
    {"smiles": "CC(C)Cn1c(/C=N/Nc2nc3ccccc3[nH]2)nc2ccccc21", "values": [
      {"measurement": "EC50", "setting": "cells [3]", "value": "52.5 µM (active)"},
      {"measurement": "EC50", "setting": "cells [4]", "value": "> 350 µM (not active)"}
    ]},
    {"smiles": "COc1ccc(/C=N/n2c(S)nnc2-c2cc(C)[nH]n2)cc1OC", "values": [
      {"measurement": "EC50", "setting": "[12]", "value": "> 195 µM (not active)"},
      {"measurement": "IC50", "setting": "[13]", "value": "8.3 µM (active)"}
    ]},
    {"smiles": "O=C(N/N=C/c1cccnc1)c1ccc(NC(=O)c2ccc(Cl)cc2)cc1", "values": [
      {"measurement": "EC50", "setting": "cells [3]", "value": "> 350 µM (not active)"},
      {"measurement": "EC50", "setting": "cells [4]", "value": "> 350 µM (not active)"}
    ]},
    {"smiles": "CCCN1C[C@@H](C)[C@H](OC)CN(C)C(=O)c2ccc(NC(=O)c3cccc(F)c3)cc2OC[C@H]1C", "values": [
      {"measurement": "AC50", "setting": "[14]", "value": "5.34 µM (active)"}
    ]},
    {"smiles": "O=C(C1CCCC1)N1CC[C@@H]2[C@H]1c1cc(C3=CCCCC3)ccc1N[C@@H]2CO", "values": [
      {"measurement": "AC50", "setting": "[14]", "value": "2.76 µM (active)"}
    ]},
    {"smiles": "CN(C)Cc1ccc(-c2nc3cccc4c3n2CCNC4=O)cc1", "values": [
      {"measurement": "IC50", "setting": "H9c2", "value": "> 79 µM (inactive)"}
    ]}
  ]
}
